The values below come from ChEMBL document CHEMBL4699480 (J Med Chem, 2020).

Activity calls are given as the source filed them. The rule behind the calls is not given here.

A short description of test [1]: Inhibition of N-terminal His9-tagged Methanocaldococcus jannaschii DSM 2661 AglH incubated for 2 hrs using UDP-GlcN-Cg-FITC and alpha-dihydroundecap-renyl phosphate by reversed-phase HPLC analysis.
Test [2] deals with T1, UDP-N-acetylglucosamine--dolichyl-phosphate N-acetylglucosaminephosphotransferase (Homo sapiens, UniProt Q9H3H5).
T1 sequence (Q9H3H5 whole entry): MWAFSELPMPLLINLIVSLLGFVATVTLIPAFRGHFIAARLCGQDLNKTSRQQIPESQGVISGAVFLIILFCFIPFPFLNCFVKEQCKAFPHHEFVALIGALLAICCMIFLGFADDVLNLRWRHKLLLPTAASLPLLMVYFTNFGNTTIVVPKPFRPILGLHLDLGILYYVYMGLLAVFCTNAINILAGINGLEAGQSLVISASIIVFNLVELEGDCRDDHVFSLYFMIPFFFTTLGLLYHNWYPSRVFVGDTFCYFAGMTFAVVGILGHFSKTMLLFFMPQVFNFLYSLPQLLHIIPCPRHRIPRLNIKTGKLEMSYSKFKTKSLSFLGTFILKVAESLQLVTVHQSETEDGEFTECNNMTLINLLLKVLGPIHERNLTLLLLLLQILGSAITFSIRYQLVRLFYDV
Nature of the test: Inhibition of human DPAGT1 expressed in HEK293 (Expi293) cells incubated for 2 hrs using UDP-GlcN-Cg-FITC and alpha-dihydroundecap-renyl phosphate by reversed-phase HPLC analysis. It is filed as cell-based.

Test [3] is described as follows: Inhibition of Escherichia coli WecA incubated for 2 hrs using UDP-Glucosamine-C6-FITC substrate by reversed-phase HPLC analysis. Also noted: species or system Escherichia coli BL21.
A short description of test [4]: Inhibition of N-terminal 6x-His-tagged Hydrogenivirga-sp. 128-5-R1-1 MraY expressed in Escherichia coli NiCo21(DE3) incubated for 2 hrs by reversed-phase HPLC analysis.
The subject of test [5] is PD002. Nature of the test: Inhibition of cell migration in human PD002 cells at 0.1 uM incubated for 0.5 hrs by crystal violet staining based Boyden chamber assay. It is filed as functional.
The nature of test [6]: Inhibition of Mycobacterium tuberculosis WecA.
The test system of test [7] is HCT-116. In words: Cytotoxicity in human HCT-116 cells assessed as reduction in cell viability incubated for 72 hrs by MTT assay. It is filed as functional, cell-based. The note with it: HCT-116, 72 h. Background: Tetrazolium assays rely on reduction of a dye to a coloured formazan, in cell work by metabolically active cells.
Test [8] is described as follows: Cytotoxicity in mouse L1210 cells assessed as reduction in cell viability incubated for 72 hrs by MTT assay. As to conditions: L1210, 72 h.
Test [9] concerns CAPAN-1. In words: Cytotoxicity in human CAPAN-1 cells assessed as reduction in cell viability incubated for 72 hrs by MTT assay. It is filed as functional, cell-based. The note with it: CAPAN-1, 72 h.
Test [10] concerns Vero. In words: Cytotoxicity in African green monkey Vero cells assessed as reduction in cell viability incubated for 72 hrs by MTT assay. It is filed as cell-based. As to conditions: Chlorocebus sabaeus.
Test [11] can be described thus: Cytotoxicity in human hTERT-HPNE cells assessed as reduction in cell viability incubated for 72 hrs by MTT assay. It is filed as cell-based.
Test [12] concerns ASPC1. Nature of the test: Cytotoxicity in human ASPC1 cells assessed as reduction in cell viability incubated for 72 hrs by MTT assay. It is filed as functional, cell-based. The note with it: ASPC1, 72 h.
For test [13], the system named is PANC-1. Nature of the test: Cytotoxicity in human PANC-1 cells assessed as reduction in cell viability incubated for 72 hrs by MTT assay. It is filed as functional, cell-based. The note with it: PANC-1, 72 h.
In test [14] the test system is DLD-1. In words: Cytotoxicity in human DLD-1 cells assessed as reduction in cell viability incubated for 72 hrs by MTT assay. It is filed as functional, cell-based. The note with it: DLD-1, 72 h.
Test [15] relates to KB. In words: Cytotoxicity in human KB cells assessed as reduction in cell viability incubated for 72 hrs by MTT assay. It is filed as functional, cell-based.
The test system of test [16] is SiHa. In words: Cytotoxicity in human SiHa cells assessed as reduction in cell viability incubated for 72 hrs by MTT assay. It is filed as functional, cell-based.
Test [17] is described as follows: Cytotoxicity in human PD002 cells assessed as reduction in cell viability incubated for 72 hrs by MTT assay. It is filed as functional, cell-based. As to conditions: PD002, 72 h.
A short description of test [18]: Inhibition of Mycobacterium tuberculosis WecA by fluorescence based assay.

Broadly, the IC50 is the concentration that inhibits the measured activity by half. Take `NC(=O)[C@H](O[C@H]1OC(C(=O)N[C@H]2CCCCNC2=O)=C[C@H](O)[C@@H]1O)[C@H]1O[C@@H](n2ccc(=O)[nH]c2=O)[C@H](O)[C@@H]1O`: the 50% inhibitory concentration (IC50) in test [1] is over 50 µM; in [2] it was over 50 µM; in test [3] it was 35 µM; in test [4], over 50 µM.

As for `NC(=O)[C@H](O[C@H]1OC(C(=O)NCc2ccc(N3CCC(Oc4ccc(OC(F)(F)F)cc4)CC3)cc2)=C[C@H](O)[C@@H]1O)[C@H]1O[C@@H](n2ccc(=O)[nH]c2=O)[C@H](O)[C@@H]1O`, the IC50 in [1] was over 50 µM; in test [2], over 50 µM; in [3], 30 µM; in test [4], over 50 µM.

`Nc1ccn([C@@H]2O[C@H](CO)[C@@H](O)C2(F)F)c(=O)n1`: in test [5], the inhibition entry is “Active”.

On to `CO[C@H]1[C@@H](OC)[C@H](n2ccc(=O)[nH]c2=O)O[C@@H]1[C@@H](O[C@H]1OC(C(=O)NCc2ccc(N3CCC(Oc4ccc(OC(F)(F)F)cc4)CC3)cc2)=C[C@H](O)[C@@H]1O)C(N)=O`, for which the half-inhibitory concentration (IC50) in test [1] is 30 µM; in test [2], 20 µM; in [3], 10 µM; in [4], 5 µM.

In test [6], `CCCCc1ccc(NC(=O)C2=CCN(C)[C@@H]([C@H](O[C@@H]3O[C@H](CN)[C@@H](O)[C@H]3O)[C@H]3O[C@@H](n4ccc(=O)[nH]c4=O)[C@H](O)[C@@H]3O)C(=O)N2C)cc1` registered a concentration for half-maximal inhibition (IC50) of 0.084 µM.

For the compound `CO[C@@H]1[C@H](O)[C@@H]([C@@H](O[C@H]2OC(C(=O)NCc3ccc(N4CCC(Oc5ccc(OC(F)(F)F)cc5)CC4)cc3)=C[C@H](O)[C@@H]2O)C(N)=O)O[C@H]1n1ccc(=O)[nH]c1=O`, the IC50 in test [7] was 25 µM; in test [8], over 50 µM; in [1], 15 µM; in [3] it was 20 µM; in test [9], 40 µM; in test [10], over 50 µM. The concentration for half-maximal inhibition (IC50) was over 50 µM in [11]; over 50 µM in test [4]; 30 µM in [12]; 45 µM in test [13]; 35 µM in test [14]; 35 µM in test [15]. Besides, the IC50 in test [16] stood at 25 µM; in test [17], 50 µM.

Turning to `CO[C@H]1[C@@H](OC)[C@H](n2ccc(=O)[nH]c2=O)O[C@@H]1[C@@H](O[C@H]1OC(C(=O)N[C@H]2CCCCNC2=O)=C[C@H](O)[C@@H]1O)C(N)=O`, the half-maximal inhibitory concentration (IC50) is over 50 µM in test [7]; over 50 µM in test [8]; 0.06 µM in test [18]; 2.5 µM in test [1]; 4.5 µM in test [2]; 0.06 µM in test [3]. Also, the concentration for half-maximal inhibition (IC50) in test [9], in test [10], in test [11], in test [4], in test [12] and in test [13] was over 50 µM in each case. In addition, the IC50 in test [14], in test [15], in test [16] and in test [17] was over 50 µM in each case.

With `NC[C@H]1O[C@@H](O[C@H]([C@H]2O[C@@H](n3ccc(=O)[nH]c3=O)[C@H](O)[C@@H]2O)[C@H](NCCCC(=O)NCc2ccc(N3CCC(Oc4ccc(OC(F)(F)F)cc4)CC3)cc2)C(N)=O)[C@H](O)[C@@H]1O`, the IC50 in test [1], in test [2], in test [3] and in test [4] was 0.01 µM throughout.

`CO[C@@H]1[C@H](O)[C@@H]([C@@H](O[C@H]2OC(CNCc3ccc(N4CCC(Oc5ccc(OC(F)(F)F)cc5)CC4)cc3)=C[C@H](O)[C@@H]2O)C(N)=O)O[C@H]1n1ccc(=O)[nH]c1=O`: the half-maximal inhibitory concentration (IC50) in test [1], in [2], in test [3] and in [4] was over 50 µM throughout.

Turning to `CO[C@@H]1[C@H](O)[C@@H]([C@@H](O[C@H]2OC(C(=O)N[C@H]3CCCCNC3=O)=C[C@H](O)[C@@H]2O)C(N)=O)O[C@H]1n1ccc(=O)[nH]c1=O`, the IC50 worked out at 20 µM in test [1], 11.5 µM in test [2], 30 µM in [3] and 8.5 µM in test [4].

As to `CO[C@H]1[C@@H](O)[C@H](n2ccc(=O)[nH]c2=O)O[C@@H]1[C@@H](O[C@H]1OC(CNCc2ccc(N3CCC(Oc4ccc(OC(F)(F)F)cc4)CC3)cc2)=C[C@H](O)[C@@H]1O)C(N)=O`, the half-maximal inhibitory concentration (IC50) in [1], in test [2], in test [3] and in test [4] was over 50 µM in each case.

Take `CO[C@H]1[C@@H](O)[C@H](n2ccc(=O)[nH]c2=O)O[C@@H]1[C@@H](O[C@H]1OC(C(=O)N[C@H]2CCCCNC2=O)=C[C@H](O)[C@@H]1O)C(N)=O` [CAPURAMYCIN]: the IC50 in test [7], in [8], in test [1], in [2], in [3] and in [9] was over 50 µM throughout. Further, the IC50 is over 50 µM in test [10]; over 50 µM in [11]; 0.13 µM in [4]; over 50 µM in [12]; over 50 µM in test [13]; over 50 µM in test [14]. The IC50 in test [15], in test [16] and in [17] was over 50 µM each time.
